Columns and labels:
A549 = A549 cell viability / combination index; type: cell-based; conditions: Homo sapiens
Text: (§1) The combination index or CI means a value acquired through a calculation based on the Combination Index Theorem. From CI value, the interaction between components within a drug having multiple components can be understood. For example, the CI value quantitatively defines synergism (CI<1), additive effect (CI=1), and antagonism (CI>1) among components.
(§2) The expression fraction affected (Fa) means the fraction affected of a component according to Median-Effect Principle. A CI-Fa plot can be used to define the synergism and antagonism relation between different components.
In another preferable embodiment, A549 cells, which are selected as cancer cell model, are respectively incubated with DMC, GEM, CHC/DMC, and CHC/GEM. In Table 4, DMC or GEM encapsulated by CHC has smaller IC50 comparing to those without CHC encapsulation, proving that an anti-cancer component encapsulated by CHC has higher toxic effect to the cells.
In an embodiment, a plurality of CHC/DMC-GEM having different DMC to GEM ratios including 1:2.5, 1:5, 1:10, and 1:20 are respectively incubated with A549 to find a drug ratio with better synergistic effect. After calculation, a CI versus Fa plot is shown in FIG. 7 based on the viability of A549 cells. […]

A549-ON = A549-ON cell viability / combination index; type: cell-based
Text: as §1, §2
In a preferable embodiment, A549-ON is chosen as the cancer cell model. A549-ON is incubated with DMC, GEM, CHC/DMC, and CHC/GEM respectively to observe cell viability. In Table 3, DMC and GEM encapsulated by CHC has smaller IC50 comparing to those without CHC encapsulation, providing that an anti-cancer component encapsulated by CHC has higher toxic effect to the cells.
In an embodiment, a plurality of CHC/DMC-GEM having different DMC to GEM ratio including 1:1.2, 1:5, 1:12, and 1:25 are respectively incubated with A549-ON to find a component ratio with better synergistic effect. […]

Row | SMILES | IC50 (A549) [µg/mL] | IC50 (A549-ON) [µg/mL]
1 | COc1cc(/C=C/C(O)=C/C(=O)/C=C/c2ccc(O)cc2)ccc1O [DMC, Demethoxycurcumin] | 10.3 | 10
2 | Nc1ccn([C@@H]2O[C@H](CO)[C@@H](O)C2(F)F)c(=O)n1 [GEM, Gemcitabine] | 117 | 117

Reference: patent publication US20180280517A1, “Nanocomposite, a Preparation Method Thereof and Method for Treating Cancer Using the Same” (National Chiao Tung University, priority 2017, published 2018)
